Experimental data taken from PMC9596378, “Discovery and molecular basis of subtype-selective cyclophilin inhibitors” (Nature Chemical Biology, 2022).
Where “and” joins values, the source holds several entries; their conditions need not be identical. Equal entries are not always repeated. Where two headings read alike, the source gives them in different places.

How the values were obtained:
CypE = biological target: T1, CypE (Homo sapiens, UniProt Q9UNP9); assay: Competition anisotropy binding assay with A26-Fl
T1 construct: PPIE (UniProtKB Entry Q9UNP9: residues 131–301); host or cells: E. coli BL21(DE3)
Procedure: Adapted from previous work[52], cyclophilin in assay buffer (25 mM HEPES pH 8.0, 100 mM NaCl, 0.01% Triton X-100) at a pre-determined concentration from Supplementary Table 6 was incubated with 0.5 nM A26-Fl for 10 min at room temperature in a flat-bottom black untreated 96-well plate (Corning). Competitor macrocycle was then added to each well and incubated for 24 h. Final assay volume was 100 µL with 0.25% DMSO. Fluorescence anisotropy was then measured using a Tecan Spark plate reader using 492 nm/523 nm excitation/emission settings.

CypB E121S = biological target: T2, CypB E121S (Homo sapiens, UniProt P23284, E121S); assay: biochemical
T2 construct: Lane 14- SNA-CypB E121S (34-216);; His6 tag with TEV site (2BT vector); SNA remnant stays on the N-terminus (N, cleaved yes); made in house; host or cells: E. coli BL21(DE3)
Procedure, shortened: (§1)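 Recombinant cyclophilin (5 nM final) in 25 mM HEPES pH 7.3, 100 mM NaCl, 0.01% Triton X-100 was preincubated with compound at 2–3 °C. It was then coupled with 25 µM α-chymotrypsin and 5 µM Suc-AAPF-AMC (LiCl/TFE), and AMC fluorescence was followed for 330 s.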

CypD S123E = biological target: T3, CypD S123E (Homo sapiens, UniProt P30405, S123E); assay: Chymotrypsin coupled prolyl-isomerase assay; assay type: biochemical; details: prolyl-isomerase inhibition
T3 construct: made in house; host or cells: E. coli BL21(DE3)
Procedure, shortened: as §1

CypD K118A = biological target: T4, CypD K118A (Homo sapiens, UniProt P30405, K118A); assay: Chymotrypsin coupled prolyl-isomerase assay; assay type: biochemical; details: prolyl-isomerase inhibition
T4 construct: made in house; host or cells: E. coli BL21(DE3)
Procedure, shortened: as §1

CypD R124A = biological target: T5, CypD R124A (Homo sapiens, UniProt P30405, R124A); assay: Chymotrypsin coupled prolyl-isomerase assay; assay type: biochemical
T5 construct: made in house; host or cells: E. coli BL21(DE3)
Procedure, shortened: as §1

CypD K118E = biological target: T6, CypD K118E (Homo sapiens, UniProt P30405, K118E); assay: Chymotrypsin coupled prolyl-isomerase assay; assay type: biochemical; details: for IC50: prolyl-isomerase inhibition
T6 construct: made in house; host or cells: E. coli BL21(DE3)
Procedure, shortened: as §1

CypD R124K = biological target: T7, CypD R124K (Homo sapiens, UniProt P30405, R124K); assay: Chymotrypsin coupled prolyl-isomerase assay; assay type: biochemical; details: mutant CypD R124K; read-out: Mutant Cyclophilin Prolyl Isomerase Inhibition IC50 Values, CypD R124K
T7 construct: made in house; host or cells: E. coli BL21(DE3)
Procedure, shortened: as §1

CypA E81S/K82R = biological target: T8, CypA E81S/K82R (Homo sapiens, UniProt P62937, E81S/K82R); assay: Chymotrypsin coupled prolyl-isomerase assay; assay type: biochemical
T8 construct: Lane 12- SNA-CypA E81S/K82R (1-165);; His6 tag with TEV site (2BT vector); SNA remnant stays on the N-terminus (N, cleaved yes); made in house; host or cells: E. coli BL21(DE3)
Procedure, shortened: as §1

[1] = test system: isolated mouse liver mitochondria; assay: Mitochondrial calcium retention capacity assay (mPTP opening); details: for calcium retention capacity before mPTP opening (in words): 2 µM CsA, 10 µM B52-Cy5/*B52-Cy5, 20 µM B53-Cy5/*B53-Cy5, vs DMSO; for Normalized # Pulses (calcium retention capacity ratio to DMSO): 60 µM CaCl2 pulses, individual mitochondrial preparations
Procedure: All procedures used in animal studies were approved by the Institutional Animal Care and Use Committee at Massachusetts General Hospital. Female C57BL/6J mice (Jackson Labs) age 10–12 weeks were anesthetized by isoflurane. The liver from one mouse was rinsed in ice-cold PBS, minced in ice-cold isolation buffer containing 0.28 M sucrose, 10 mM Hepes-KOH pH 7.2, 0.2 mM EDTA and 1% (w/v) bovine serum albumin, gently homogenized with four strokes of a tight-fitting Teflon pestle at 1,000 r.p.m., and then centrifuged for 10 min at 600g at 4 °C. The supernatant was recovered and centrifuged for 10 min at 8,000g at 4 °C. The loose outer buffy coat was rinsed off and the pellet resuspended gently in isolation buffer and the spins were repeated. […] The suspension was kept on ice and all assays performed within 4–6 h following isolation. Quality control was done with every preparation by adding 250 mcg mitochondria to 500 µL assay buffer containing 137 mM KCl, 10 mM Hepes-KOH pH 7.2, 2.5 mM MgCl2, 5 mM each of glutamate and malate, and 3 mM KH2PO4. Sequential 150 µM ADP pulses were then delivered. Only preparations with respiratory control ratio >6 (as assessed by the ratio of ADP-coupled state 3 respiration to state 4 respiration) were used for further experiments. Measurements were made in a custom-built spectrometer.
Two hundred and fifty micrograms of mouse liver mitochondria isolated as above were added to 500 µL assay buffer containing 125 mM KCl, 20 mM Hepes-KOH pH 7.2, 1 mM MgCl2, 5 mM each of glutamate and malate, and 3 mM KH2PO4. 0.5 µM Calcium Green 5N (Molecular Probes) was included to monitor extramitochondrial free Ca^2+. Fluorescence was continuously monitored in the custom-built fluorimeter described above, with excitation 470 nm and emission 520–560 nm. […] The calcium retention capacity ratio was obtained by normalizing the number of Ca^2+ pulses that could be taken up in a given condition by that taken up under DMSO control conditions, as previously described.

[2] = mutant CypB E121S, read-out: Mutant Cyclophilin Prolyl Isomerase Inhibition IC50 Values, CypB E121S
[3] = mutant CypD R124A, read-out: Mutant Cyclophilin Prolyl Isomerase Inhibition IC50 Values, CypD R124A
[4] = mutant CypA E81S/K82R, read-out: Mutant Cyclophilin Prolyl Isomerase Inhibition IC50 Values, CypA E81S/K82R
[5] = prolyl-isomerase inhibition, read-out: IC50 CypB E121S
[6] = prolyl-isomerase inhibition, read-out: IC50 CypA E81S/K82R

T5 sequence (P30405 45-207 R124A): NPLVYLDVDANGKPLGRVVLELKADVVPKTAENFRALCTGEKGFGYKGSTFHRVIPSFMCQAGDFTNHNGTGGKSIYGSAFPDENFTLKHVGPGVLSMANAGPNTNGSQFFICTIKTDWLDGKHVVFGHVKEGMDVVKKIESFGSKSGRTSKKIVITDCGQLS
T6 sequence (P30405 45-207 K118E): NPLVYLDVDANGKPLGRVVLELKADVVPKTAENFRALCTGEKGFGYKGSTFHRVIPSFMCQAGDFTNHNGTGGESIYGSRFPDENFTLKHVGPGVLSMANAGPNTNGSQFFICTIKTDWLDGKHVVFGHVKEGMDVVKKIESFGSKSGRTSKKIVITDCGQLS
T4 sequence (P30405 45-207 K118A): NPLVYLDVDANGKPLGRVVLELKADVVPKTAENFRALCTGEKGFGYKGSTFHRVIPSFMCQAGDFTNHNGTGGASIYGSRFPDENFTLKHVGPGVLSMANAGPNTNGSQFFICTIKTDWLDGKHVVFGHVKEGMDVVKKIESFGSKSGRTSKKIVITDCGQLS
T1 sequence (Q9UNP9 131-301): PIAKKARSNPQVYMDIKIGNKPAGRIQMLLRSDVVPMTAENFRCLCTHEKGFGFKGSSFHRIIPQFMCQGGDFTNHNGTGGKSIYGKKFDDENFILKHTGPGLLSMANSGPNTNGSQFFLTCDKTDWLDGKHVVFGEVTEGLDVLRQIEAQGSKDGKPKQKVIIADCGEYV
T3 sequence (P30405 45-207 S123E): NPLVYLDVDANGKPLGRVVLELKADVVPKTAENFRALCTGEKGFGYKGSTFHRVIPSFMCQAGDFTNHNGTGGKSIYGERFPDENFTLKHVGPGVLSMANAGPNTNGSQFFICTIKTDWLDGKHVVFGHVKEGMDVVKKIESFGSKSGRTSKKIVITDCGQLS
T7 sequence (P30405 45-207 R124K): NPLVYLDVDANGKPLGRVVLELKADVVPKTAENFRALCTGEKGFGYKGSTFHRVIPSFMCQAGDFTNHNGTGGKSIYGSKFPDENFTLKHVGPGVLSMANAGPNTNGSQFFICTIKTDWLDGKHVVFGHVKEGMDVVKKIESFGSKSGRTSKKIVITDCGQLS
T2 sequence (P23284 34-216 E121S): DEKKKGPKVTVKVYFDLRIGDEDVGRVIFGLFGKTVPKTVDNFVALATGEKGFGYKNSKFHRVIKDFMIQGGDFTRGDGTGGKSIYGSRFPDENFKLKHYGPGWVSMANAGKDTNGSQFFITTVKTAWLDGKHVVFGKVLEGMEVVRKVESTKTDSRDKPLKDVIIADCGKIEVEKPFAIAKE
T8 sequence (P62937 whole entry E81S/K82R): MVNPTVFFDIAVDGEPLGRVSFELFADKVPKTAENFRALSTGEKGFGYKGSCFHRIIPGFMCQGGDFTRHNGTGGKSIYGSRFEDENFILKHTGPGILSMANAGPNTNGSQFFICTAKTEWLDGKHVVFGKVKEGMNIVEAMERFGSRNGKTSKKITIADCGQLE

SMILES | IC50 (CypD S123E) [nM] | IC50 (CypD K118A) [nM] | IC50 (CypD R124A; [3]) [nM] | IC50 (CypD K118E) [nM] | IC50 (CypD R124K) [nM] | calcium retention capacity before mPTP opening (in words) [1] | other results
NC(=O)C1CCNC(=O)C=CC(=O)N2CCCC(Cc3ccccc3)(C2)C(=O)NC(Cc2ccc(-c3ccc(C=O)c(B(O)O)c3)cc2)C(=O)NCc2ccccc2CC(=O)N1 (stereo not drawn) [Compound C3A] |  |  |  |  |  |  | selectivity for CypE over other tested cyclophilins (CypE; FP competition with A26-Fl): ≥ 10 fold
NCCOCCNC(=O)[C@@H]1CCNC(=O)/C=C/C(=O)N2CCC[C@](Cc3ccccc3)(C2)C(=O)N[C@@H](Cc2ccc(-c3ccc(CCC(=O)O)cc3)cc2)C(=O)NCc2ccccc2CC(=O)N1 [Compound B23] | 23 | 70 | 3 | 180 | 2.9 |  | IC50 (CypB E121S; [2]): 8 nM; IC50 (CypA E81S/K82R; [4]): 23 nM
NCCOCCNC(=O)[C@@H]1CCNC(=O)/C=C/C(=O)N2CCC[C@](Cc3ccccc3)(C2)C(=O)N[C@@H](Cc2ccc(-c3ccc(C(CC(=O)O)CC(=O)O)cc3)cc2)C(=O)NCc2ccccc2CC(=O)N1 [Compound B53] | 800 | 900 | 32 | 4000 | 100 |  | IC50 (CypB E121S; [5]): 50 nM; IC50 (CypA E81S/K82R; [6]): 180 nM
C[N+]1=C(C=CC=CC=C2N(CCCCCC(=O)NCCNC(=O)C3CCNC(=O)C=CC(=O)N4CCCC(Cc5ccccc5)(C4)C(=O)NC(Cc4ccc(-c5ccc(CC(C(=O)O)C(=O)O)cc5)cc4)C(=O)NCc4ccccc4CC(=O)N3)c3ccccc3C2(C)C)C(C)(C)c2ccccc21 (stereo not drawn) [*B52-Cy5] |  |  |  |  |  | do not influence calcium retention capacity | Normalized # Pulses (calcium retention capacity ratio to DMSO) ([1]; 10 µM compound): 1
C[N+]1=C(C=CC=CC=C2N(CCCCCC(=O)NCCNC(=O)C3CCNC(=O)C=CC(=O)N4CCCC(Cc5ccccc5)(C4)C(=O)NC(Cc4ccc(-c5ccc(C(CC(=O)O)CC(=O)O)cc5)cc4)C(=O)NCc4ccccc4CC(=O)N3)c3ccccc3C2(C)C)C(C)(C)c2ccccc21 (stereo not drawn) [Compound B53-Cy5] |  |  |  |  |  | substantially increased calcium retention capacity | Normalized # Pulses (calcium retention capacity ratio to DMSO) ([1]; 20 µM compound): 2.667 and 1.25 and 2
NCCOCCNC(=O)[C@@H]1CCNC(=O)/C=C/C(=O)N2CCC[C@](Cc3ccccc3)(C2)C(=O)N[C@@H](Cc2ccc(-c3ccc(C#CC(=O)O)cc3)cc2)C(=O)NCc2ccccc2CC(=O)N1 [Compound B25] | 8 | 19 | 2 | 60 | 2.9 |  | IC50 (CypB E121S; [2]): 2.2 nM; IC50 (CypA E81S/K82R; [4]): 6.2 nM
C[N+]1=C(C=CC=CC=C2N(CCCCCC(=O)NCCNC(=O)C3CCNC(=O)C=CC(=O)N4CCCC(Cc5ccccc5)(C4)C(=O)NC(Cc4ccc(-c5ccc(CC(C(=O)O)C(=O)O)cc5)cc4)C(=O)NCc4ccccc4CC(=O)N3)c3ccccc3C2(C)C)C(C)(C)c2ccccc21 (stereo not drawn) [Compound B52-Cy5] |  |  |  |  |  | substantially increased calcium retention capacity | Normalized # Pulses (calcium retention capacity ratio to DMSO) ([1]; 10 µM compound): 4.333 and 3 and 4
NCCCc1ccc(-c2ccc(C[C@@H]3NC(=O)[C@]4(Cc5ccccc5)CCCN(C4)C(=O)/C=C/C(=O)NCC[C@@H](C(=O)NCCOCCN)NC(=O)Cc4ccccc4CNC3=O)cc2)cc1 [Compound B32] |  |  |  | 1100 |  |  | IC50 (CypD R124A; prolyl-isomerase inhibition, read-out: IC50 CypD R124A): 700 nM; potency improvement on CypD K118E, R124A compared to wild-type CypD (CypD K118E; single mutants K118E, R124A): 5- to 6 fold
NCCOCCNC(=O)[C@@H]1CCNC(=O)/C=C/C(=O)N2CCC[C@](Cc3ccccc3)(C2)C(=O)N[C@@H](Cc2ccc(-c3ccc(CC(C(=O)O)C(=O)O)cc3)cc2)C(=O)NCc2ccccc2CC(=O)N1 [Compound B52] | 240 | 73 | 17 | 300 | 20 |  | IC50 (CypB E121S; [5]): 8 nM; IC50 (CypA E81S/K82R; [6]): 27 nM
NC(=O)[C@@H]1CCNC(=O)/C=C/C(=O)N2CCC[C@](Cc3ccccc3)(C2)C(=O)N[C@@H](Cc2ccc(-c3cccc(B(O)O)c3)cc2)C(=O)NCc2ccccc2CC(=O)N1 [Compound C6A] |  |  |  |  |  |  | Ki (CypE; FP competition with 0.5 nM A26-Fl, 24 h): 7 µM; reduced potency relative to C3A (CypE; FP competition with A26-Fl, CypE): 100 fold
C[N+]1=C(C=CC=CC=C2N(CCCCCC(=O)NCCNC(=O)C3CCNC(=O)C=CC(=O)N4CCCC(Cc5ccccc5)(C4)C(=O)NC(Cc4ccc(-c5ccc(C(CC(=O)O)CC(=O)O)cc5)cc4)C(=O)NCc4ccccc4CC(=O)N3)c3ccccc3C2(C)C)C(C)(C)c2ccccc21 (stereo not drawn) [*B53-Cy5] |  |  |  |  |  | do not influence calcium retention capacity | Normalized # Pulses (calcium retention capacity ratio to DMSO) ([1]; 20 µM compound): 1
